Data from patent publication US11352354B2, “Substituted penta-fused hexa-heterocyclic compounds, preparation method therefor, drug combination and use thereof” (Xiamen University, priority 2017, dated 2022).
Marks after values point to notes of the source that are not given here.

What was measured:
PIKfyve protein = PIKfyve protein (Homo sapiens (Human), UniProt Q9Y2I7); assay: Dissociation equilibrium constant (Kd) of compound and PIKfyve protein, DiscoverX KINOMEscan; type: binding; conditions: eleven 3-fold dilutions, curve fitting
Sequence of PIKfyve protein (Q9Y2I7 whole entry): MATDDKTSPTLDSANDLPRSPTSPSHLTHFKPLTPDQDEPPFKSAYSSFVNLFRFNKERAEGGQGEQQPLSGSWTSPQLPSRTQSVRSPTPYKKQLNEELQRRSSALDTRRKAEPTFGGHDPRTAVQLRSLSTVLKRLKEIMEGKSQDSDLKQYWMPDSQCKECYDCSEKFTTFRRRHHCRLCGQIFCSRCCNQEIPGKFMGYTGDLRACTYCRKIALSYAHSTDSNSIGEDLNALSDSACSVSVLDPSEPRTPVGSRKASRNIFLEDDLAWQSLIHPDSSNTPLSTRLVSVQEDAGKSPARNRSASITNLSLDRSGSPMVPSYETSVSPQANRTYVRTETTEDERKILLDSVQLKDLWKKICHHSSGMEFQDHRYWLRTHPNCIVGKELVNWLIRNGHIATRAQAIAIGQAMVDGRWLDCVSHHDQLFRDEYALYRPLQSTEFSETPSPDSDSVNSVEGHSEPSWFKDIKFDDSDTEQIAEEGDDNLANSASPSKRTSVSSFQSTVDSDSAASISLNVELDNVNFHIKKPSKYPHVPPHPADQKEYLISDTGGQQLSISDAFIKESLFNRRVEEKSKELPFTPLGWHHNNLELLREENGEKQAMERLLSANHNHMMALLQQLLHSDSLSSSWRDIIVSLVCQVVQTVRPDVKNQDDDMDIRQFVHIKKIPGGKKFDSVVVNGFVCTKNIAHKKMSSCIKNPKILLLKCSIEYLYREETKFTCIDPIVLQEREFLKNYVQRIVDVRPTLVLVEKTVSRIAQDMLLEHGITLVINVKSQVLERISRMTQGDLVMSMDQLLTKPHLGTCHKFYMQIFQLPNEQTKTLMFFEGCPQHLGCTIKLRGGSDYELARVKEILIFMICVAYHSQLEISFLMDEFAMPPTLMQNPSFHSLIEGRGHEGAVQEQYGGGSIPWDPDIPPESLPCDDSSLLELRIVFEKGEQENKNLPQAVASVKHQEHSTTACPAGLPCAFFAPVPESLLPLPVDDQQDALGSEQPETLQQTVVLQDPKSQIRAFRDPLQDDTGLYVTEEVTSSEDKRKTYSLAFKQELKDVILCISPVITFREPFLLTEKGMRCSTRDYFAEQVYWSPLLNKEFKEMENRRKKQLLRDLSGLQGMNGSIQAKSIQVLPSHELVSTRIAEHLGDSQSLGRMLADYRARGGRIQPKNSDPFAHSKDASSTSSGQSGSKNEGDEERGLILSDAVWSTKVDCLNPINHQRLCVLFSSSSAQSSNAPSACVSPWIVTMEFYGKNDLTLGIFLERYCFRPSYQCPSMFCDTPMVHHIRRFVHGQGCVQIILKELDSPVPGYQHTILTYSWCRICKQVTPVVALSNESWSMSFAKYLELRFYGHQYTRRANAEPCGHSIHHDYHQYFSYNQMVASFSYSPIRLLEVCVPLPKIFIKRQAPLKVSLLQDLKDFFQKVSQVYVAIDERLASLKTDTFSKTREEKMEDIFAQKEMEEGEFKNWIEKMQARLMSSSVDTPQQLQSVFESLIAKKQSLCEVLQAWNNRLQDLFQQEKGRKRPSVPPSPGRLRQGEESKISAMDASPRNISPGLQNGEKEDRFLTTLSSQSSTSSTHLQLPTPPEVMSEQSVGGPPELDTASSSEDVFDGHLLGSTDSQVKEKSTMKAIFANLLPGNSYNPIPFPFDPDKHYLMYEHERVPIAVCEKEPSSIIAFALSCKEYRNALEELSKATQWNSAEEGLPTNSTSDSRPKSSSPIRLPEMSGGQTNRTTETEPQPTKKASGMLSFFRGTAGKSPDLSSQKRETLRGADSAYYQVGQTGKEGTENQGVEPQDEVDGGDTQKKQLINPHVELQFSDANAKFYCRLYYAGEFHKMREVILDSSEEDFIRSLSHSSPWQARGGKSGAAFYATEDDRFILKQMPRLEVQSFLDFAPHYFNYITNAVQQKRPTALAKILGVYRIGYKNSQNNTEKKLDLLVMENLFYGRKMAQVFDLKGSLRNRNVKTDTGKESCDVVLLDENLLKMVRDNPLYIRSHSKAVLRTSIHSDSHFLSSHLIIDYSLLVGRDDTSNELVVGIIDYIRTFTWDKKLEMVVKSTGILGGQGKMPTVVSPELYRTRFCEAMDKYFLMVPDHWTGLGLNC
Procedure: II. Determination of Dissociation Equilibrium Constant (Kd Value) of Compound and PIKfyve Protein
The Kd value was determined by DiscoverX's KINOMEscan™ technology according to the following steps:
1. Preparation of magnetic beads: biotin-labeled small molecule ligand and avidin-coated magnetic beads were allowed to interact at room temperature for 30 minutes, and then added with excess biotin, followed by washing with a blocking solution (1% BSA, 0.05% Tween 20, 1 mM DTT) to remove unbound ligand.
2. Binding reaction: in a 384 plate, 0.02 mL system, DNA-labeled protein, small molecule ligand-bound magnetic beads, and different concentrations of compound to be tested were mixed in a reaction solution (0.17×PBS, 0.05% Tween 20, 6 mM DTT) at room temperature with shaking for 1 hr, to which was added an eluant (1×PBS, 0.05% Tween 20) for elution. Magnetic beads were resuspended by an eluant (1×PBS, 0.05% Tween 20, 0.5 μM non-biotin-labeled small molecule ligand), and shaken at room temperature for 30 min before separating out the eluant.
3. Determination of Kd value: the content of protein in the above eluate was determined by qPCR. Eleven 3-fold dilution concentrations were determined for the compound to be tested, with 3 DMSO controls for each concentration, and the Kd value was obtained by curve fitting.

Toledo cells = assay: Growth inhibition of PIKfyve-mediated tumor cells by Cell Titer Glo method, Toledo; type: cell-based; conditions: Homo sapiens, 120 h, CellTiter-Glo, 5 days of culture, read-out: Inhibition rate % (Toledo)
Procedure: (§1) IV. Determination of Growth Inhibition Rates of Compounds Against PIKfyve-Mediated Tumor Cells by Cell Titer Glo Method
(§2) 1. Cell plating: cells in logarithmic growth phase were counted and inoculated in 384-well plate.
(§3) 3. […] RLU was measured on PHERAstar Plus.

ST486 cells = assay: Growth inhibition of PIKfyve-mediated tumor cells by Cell Titer Glo method, ST486; type: cell-based; conditions: Homo sapiens, 120 h, CellTiter-Glo, 5 days of culture, read-out: Inhibition rate % (ST486)
Procedure: as §1, §2, §3

MDA-MB-231 cells = assay: Vacuolation of MDA-MB-231 cells caused by inhibition of compounds on PIKfyve (microscopy); type: cell-based; conditions: MDA-MB-231 cells
Description: I. Determination of Vacuolation of MDA-MB-231 Cells Caused by Inhibition of Compounds on PIKfyve
When the activity of pikfyve kinase is inhibited, vacuoles will be produced in cytoplasm. By observing the number of vacuoles under a microscope, the ability of compounds to inhibit the activity of pikfyve kinase can be known.
1. Cell plating: cells in logarithmic growth phase were made into a single cell suspension, counted with a cell counter and diluted to a cell concentration of about 2×10^5/mL. Then, the cells were inoculated into a 12-well plate, and cultured in a 37° C., 5% CO2 incubator.
3. Vacuolation test: after 24 and 48 hours of culture, photos were taken under an […] to observe the degree of vacuolation.
(In the table, “+” represents the degree of vacuolation; more “+” indicates more obvious vacuolation; “−” represents no vacuolation)

JeKo-1 cells = assay: Tumor cell growth inhibition by MTS method, JeKo-1; type: cell-based; conditions: 5 days of culture; for IC50 / inhibition at 10 µM: Homo sapiens, JeKo-1, 120 h; for inhibition at 10 µM: read-out: cell growth inhibition rate of compounds at 10 μM
Procedure: III. Determination of IC50 Value of Compound for Inhibiting Tumor Cell Growth by MTS Method
1. Cell plating: cells in logarithmic growth phase were counted and inoculated in a 96-well plate (20000 cells per well).
2. Administrating agent to cell: 10 mM compound mother solution in DMSO was subjected to 3 fold-gradient dilution, to set 8 concentrations, which were then added to various wells, with three replicates for each concentration, and three blank wells (only culture medium) and three negative controls (containing 0.1% DMSO) on each plate.
3. […] The OD value at 490 nm was measured with microplate reader OD490. The cell growth inhibition rate was calculated by the following formula: Cell growth inhibition rate %=1−(ODexperimental group−ODblank group)/(ODnegative group−ODblank group)×100%
The semi-inhibitory concentration IC50 of the compound acting on cell growth was calculated using GradPad Prism 5 software according to the measured cell growth inhibition rate.
In the following table it lists the IC50 value or the inhibition rates of some compounds at 10 μM against JeKo-1 cells

Kd (PIKfyve protein) | IC50 (JeKo-1 cells) | Compound | inhibition at 3.3 µM (Toledo cells) | inhibition at 3.3 µM (ST486 cells) | degree of vacuolation, 1 μM, 24 h (MDA-MB-231 cells) | degree of vacuolation, 1 μM, 48 h (MDA-MB-231 cells) | degree of vacuolation, 10 μM, 24 h (MDA-MB-231 cells) | degree of vacuolation, 10 μM, 48 h (MDA-MB-231 cells) | inhibition at 10 µM (JeKo-1 cells; 10 μM) | cell growth inhibition rate of compounds at 10 μM (JeKo-1 cells; 10 μM)
> 30 µM |  | Cc1ccc(NC(=O)c2cccc(C(F)(F)F)c2)cc1Nc1nc(-c2ccncc2)c2[nH]ccc2n1 [V-c-39] | 49.1% | 9.57% |  |  |  |  |  | 
> 30 µM |  | Cc1cc(NC(=O)c2cccc(C(F)(F)F)c2)ccc1Nc1nc(-c2cccnc2)c2[nH]ccc2n1 [V-c-24] | 97.3% | 55.8% |  |  |  |  |  | 
 | 3.28 µM | Cc1ccc(C(=O)Nc2cccc(C(F)(F)F)c2)cc1Nc1nc(-c2cccnc2)c2[nH]ccc2n1 [V-c-7] | 95.8% | 91.3% | ++ | ++ | + | + |  | 
> 30 µM |  | Cc1ccc(NC(=O)c2cccc(C(F)(F)F)c2)cc1Nc1nc(-c2ccco2)c2[nH]ccc2n1 [V-c-42] |  |  |  |  |  |  |  | 
> 30 µM |  | COc1ccc(C(F)(F)F)cc1NC(=O)c1ccc(C)c(Nc2nc(-c3ccccc3)c3[nH]ccc3n2)c1 [V-c-51] |  |  |  |  |  |  |  | 
0.38 µM |  | Cc1ccc(NC(=O)c2cccc(C(F)(F)F)c2)cc1Nc1nc(-c2cccnc2)c2c(ccn2C)n1 [V-c-40] | 98.8% | 57.1% | + | +++ | + | +++ |  | 
> 30 µM |  | Cc1ccc(NC(=O)c2cccc(C(F)(F)F)c2)cc1Nc1nc(-c2ccccc2)c2[nH]ccc2n1 [V-c-41] |  |  |  |  |  |  |  | 
> 30 µM |  | Cc1ccc(C(=O)Nc2cccc(C(F)(F)F)c2)cc1Nc1nc(-c2ccncc2)c2[nH]ccc2n1 [V-c-38] | 53.3% | 30% |  |  |  |  |  | 
 | 3.17 µM | Cc1ccc(C(=O)Nc2cccc(C(F)(F)F)c2)cc1Nc1cc(-c2cccnc2)nc2sccc12 [VIII-a-7] |  |  | ++ | ++ | +++ | +++ |  | 
 | 5.14 µM | O=C(Nc1cccc(C(F)(F)F)c1)c1cccc(Nc2cc(-c3cccnc3)nc3sccc23)c1 [VIII-a-5] |  |  | − | + | + | + |  | 
 | 4.86 µM | Cc1ccc(C(=O)Nc2cccc(C(F)(F)F)c2)cc1Nc1nc(-c2cccc(Cl)c2)nc2c1cnn2C [III-b-3] |  |  | − |  | − |  |  | 
 | 6.13 µM | Cc1ccc(NC(=O)c2cccc(C(F)(F)F)c2)cc1Nc1cc(-c2ccncc2)c2cc[nH]c2n1 [I-c-11] |  |  | ++ | ++ | ++ | ++ |  | 
 | 0.939 µM | Cc1ccc(C(=O)Nc2cccc(C(F)(F)F)c2)cc1Nc1nc(-c2cccnc2)nc2c1cnn2C [III-b-1] |  |  | + | ++ | + | ++ |  | 
 | 3.08 µM | Cc1ccc(C(=O)Nc2cccc(C(F)(F)F)c2)cc1Nc1nc(-c2cccnc2)nc2cc[nH]c12 [V-a-5] |  |  | +++ | +++ | ++ | ++ |  | 
 | 1.6 µM | Cc1ccc(NC(=O)c2cccc(C(F)(F)F)c2)cc1Nc1cc(-c2ccncc2)nc2c1ccn2C [I-b-2] |  |  | − | − | ++ | ++ |  | 
> 30 µM |  | Cc1ccc(NC(=O)c2cccc(C(F)(F)F)c2)cc1Nc1nc(-c2cccs2)c2[nH]ccc2n1 [V-c-43] |  |  |  |  |  |  |  | 
 | 2.71 µM | O=C(Nc1cccc(Nc2cc(-c3cccnc3)nc3sccc23)c1)c1cccc(C(F)(F)F)c1 [VIII-a-1] |  |  | ++ | ++ | ++ | ++ |  | 
 | 2.85 µM | Cc1ccc(C(=O)Nc2cccc(C(F)(F)F)c2)cc1Nc1nc(-c2cccnc2)nc2c1ccn2C [II-b-2] |  |  | + | + | + | + |  | 
 | 2.13 µM | Cc1ccc(C(=O)Nc2ccc(CN3CCN(C)CC3)c(C(F)(F)F)c2)cc1Nc1cc(-c2ccncc2)nc2[nH]ccc12 [I-a-25] |  |  | + | + | + | + |  | 

More lines, now with the values behind:

Compound | Kd (PIKfyve protein) | IC50 (JeKo-1 cells) | inhibition at 3.3 µM (Toledo cells) | inhibition at 3.3 µM (ST486 cells) | degree of vacuolation, 1 μM, 24 h (MDA-MB-231 cells) | degree of vacuolation, 1 μM, 48 h (MDA-MB-231 cells) | degree of vacuolation, 10 μM, 24 h (MDA-MB-231 cells) | degree of vacuolation, 10 μM, 48 h (MDA-MB-231 cells) | inhibition at 10 µM (JeKo-1 cells; 10 μM) | cell growth inhibition rate of compounds at 10 μM (JeKo-1 cells; 10 μM)
Cc1ccc(C(=O)Nc2cc(C(F)(F)F)cc(C(F)(F)F)c2)cc1Nc1nc(-c2cccnc2)c2[nH]ccc2n1 [V-c-9] | 0.029 µM |  | 19.3% | 37.7% |  |  |  |  |  | 
Cc1ccc(C(=O)Nc2cccc(OC(F)(F)F)c2)cc1Nc1nc(-c2cccs2)c2[nH]ccc2n1 [V-c-63] | > 30 µM |  |  |  |  |  |  |  |  | 
COc1ccc(C(F)(F)F)cc1NC(=O)c1ccc(C)c(Nc2nc(-c3cccs3)c3[nH]ccc3n2)c1 [V-c-53] | > 30 µM |  |  |  |  |  |  |  |  | 
Cc1ccc(NC(=O)c2cc(C(F)(F)F)cc(C(F)(F)F)c2)cc1Nc1nc(-c2cccnc2)c2[nH]ccc2n1 [V-c-21] | 0.91 µM |  | 99.5% | 23.8% |  |  |  |  |  | 
Cn1ncc2c(NCc3cccnc3)nc(-c3cccc(NC(=O)Nc4cccc(C(F)(F)F)c4)c3)nc21 [III-b-14] |  | 6.78 µM |  |  | + | + | + | + |  | 
Cc1ccc(C(=O)Nc2cccc(C(F)(F)F)c2)cc1Nc1nc(-c2cccnc2)nc2[nH]cnc12 [IV-a-3] |  |  |  |  |  | + |  | + | 16.2% | 
Cc1ccc(C(=O)Nc2cccc(C(F)(F)F)c2)cc1Nc1nc(-c2cccnc2)nc2[nH]ccc12 [II-a-2] |  |  |  |  | + | + | + | + | 43.4% | 
Cc1ccc(C(=O)Nc2cccc(C(F)(F)F)c2)cc1Nc1nc(-c2cccnc2)cn2ccnc12 [VI-a-6] |  |  |  |  | − |  | − |  |  | 11.3%^a
COc1ccc(C(F)(F)F)cc1NC(=O)c1ccc(C)c(Nc2nc(-c3ccco3)c3[nH]ccc3n2)c1 [V-c-52] | > 30 µM |  |  |  |  |  |  |  |  | 
Cc1ccc(NC(=O)c2cccc(C(F)(F)F)c2)cc1Nc1nc(-c2cccnc2)nc2[nH]cnc12 [IV-a-1] |  |  |  |  | + | ++ | + | ++ | 18.3% | 
Cc1ccc(C(=O)Nc2cccc(OC(F)(F)F)c2)cc1Nc1nc(-c2ccccc2)c2[nH]ccc2n1 [V-c-61] | > 30 µM |  |  |  |  |  |  |  |  | 
Cc1ccc(C(=O)Nc2cccc(OC(F)(F)F)c2)cc1Nc1nc(-c2ccco2)c2[nH]ccc2n1 [V-c-62] | > 30 µM |  |  |  |  |  |  |  |  | 
Cc1ccc(NC(=O)c2cccc(C(F)(F)F)c2)cc1Nc1cc(-c2ccncc2)nc2sccc12 [VIII-a-4] |  |  |  |  | + | + | + | + | 17.3% | 
